What was measured:
Assay type in all cases: cell-based
Candida albicans = assay: MIC determination in RPMI-1640 growth medium (CLSI M27-A3); conditions: 168 h, growth medium RPMI-1640, seeding 1000 cfu/ml, after one week, read-out: MIC (mg/l) after one week
Protocol: (§1) After one week, a proportion of the growth medium was tested for the presence of microorganisms and these tests were used to determine the MIC (minimum inhibitory concentration). Individual test substances: natamycin, mycosamine Test microbe: Candida albicans Substrate: growth medium Microbial seeding per ml of substrate: 1000 cfu/ml Synergism was ascertained according to the method described in Kull, F. C. et al.; Mixtures of quaternary ammonium compounds and long-chain fatty acids as antifungal agents. Applied Microbiology, 9, 538-541, 1961. The following relationships apply: QA/Qa+QB/Qb=SI Qa=concentration of substance A which is the MIC Qb=concentration of substance B which is the MIC QA=concentration of substance A in the concentration of A/B at which microbial growth is suppressed QB=concentration of substance B in the concentration of A/B at which microbial growth is suppressed SI=synergistic index […]

Candida glabrata = assay: as above; conditions: Nakaseomyces glabratus, 168 h, growth medium RPMI-1640, seeding 1000 cfu/ml, after one week, read-out: MIC (mg/l) after one week
Protocol: as §1, with “the” for “the growth”, “glabrata” for “albicans”

Candida krusei = assay: as above; conditions: Pichia kudriavzevii, 168 h, growth medium RPMI-1640, seeding 1000 cfu/ml, after one week, read-out: MIC (mg/l) after one week
Protocol: as §1, with “the” for “the growth”, “krusei” for “albicans”

[1] = system: mixture of Saccharomyces cerevisiae, Zygosaccharomyces bailii, Penicillium carneum and Trichoderma virens; assay: MIC determination in contaminated iced tea, non-carbonated; conditions: 168 h, mixed test microbes, 250 cfu/ml each, after one week, read-out: MIC (mg/l) after one week
Protocol: as §1, with “the” for “the growth”, “mixture of Saccharomyces cerevisiae, Zygosaccharomyces bailii, Penicillium carneum and Trichoderma virens” for “Candida albicans”, “iced tea, non-carbonated” for “growth medium”, “250” for “1000”, “cfu/ml each of the test microbes listed above” for “cfu/ml”

| Structure (SMILES) | MIC (Candida albicans) | MIC (Candida glabrata) | MIC (Candida krusei) | MIC [1] |
| --- | --- | --- | --- | --- |
| C[C@@H]1C/C=C/C=C/C=C/C=C/[C@H](O[C@@H]2O[C@H](C)[C@@H](O)[C@H](N)[C@@H]2O)C[C@@H]2O[C@](O)(C[C@@H](O)C[C@H]3O[C@@H]3/C=C/C(=O)O1)C[C@H](O)[C@H]2C(=O)O [Natamycin, (8E,14E,16E,18E,20E)-(1R,3S,5R,7R,12R,22R,24S,25R,26S)-22-(3-amino-3,6-dideoxy-25-D-mannopyranosyloxy)-1,3,26-trihydroxy-12-methyl-10-oxo-6,11,28-trioxatricyclo[22.3.1.05,7]octacosa-8,14,16,18,20-pentaene-25-carboxylic acid] | 1 mg/L | 1 mg/L | 2 mg/L | 4 mg/L |
| C[C@@H](O)[C@@H](O)[C@H](N)[C@H](O)C=O [Mycosamine, 3-amino-3,6-dideoxymannose] | 32 mg/L | 0.5 mg/L | 2 mg/L | 0.75 mg/L |

Source: patent US20210267239A1, “Process for Sanitizing and Preserving Foodstuffs and Beverages” (LANXESS Deutschland GmbH, priority 2018, published 2021)
